These results are taken from US9096853B2, “Modified siRNA molecules incorporating 5-fluoro-2′-deoxyuridine residues to enhance cytotoxicity” (U.S. Department of Veterans Affairs, priority 2012, dated 2015).

Series [1] deals with thymidylate synthase (TS) protein. The series can be described thus: Immunoblot analysis of TS protein (free and ITC-bound), Odyssey quantitation. In kind it is cell-based, human. Conditions: RKO cells, 5 nM for 6 hr.
Series [2] relates to human colon cancer RKO cell line. In words: Clonogenic assay in RKO cells. The series is classed as cell-based. Conditions: for IC50: 6 hr exposure, colonies counted after 8 days, mean ± S.D., at least 3 experiments. The procedure: RKO cells were plated in 6-well plates at a density of 600 cells/well. On the following day, cells were transfected with ssiRNA/LF2000 complexes for 6 hr after which time, the growth medium was replaced. Similarly, FdU was added to wells for 6 hr followed by medium replacement. After 8 days, cell colonies were fixed with Trypan blue solution (75% methanol/25% acetic acid/0.25% trypan blue), washed, and air-dried before counting colonies >50 cells.

Series [3] shares this test system. In words: Cell proliferation assay (WST-1) in RKO cells. In kind it is cell-based. Conditions: for IC50: 6 hr exposure then 96 hr growth, mean ± S.D., at least 3 experiments. As for the experimental part: RKO cells were plated in 96-well plates at a density of 800 cells/well. On the following day, cells were incubated with ssiRNA/LF2000 complexes for 6 hr, after which time, the growth medium was replaced, and cells were grown for an additional 96 hr. Similarly, RKO cells were treated with FdU (#F0503, Sigma) for 6 hr followed by medium replacement and then allowed to grow for an additional 96 hr. Cell proliferation/viability was quantified by the WST-1 assay (Roche; Indianapolis, Ind.).
On the technique in general: Tetrazolium dyes change colour on reduction, which living cells bring about.

In series [4] the test system is thymidylate synthase (TS) protein. In words: Immunoblot analysis of TS protein (free and ITC-bound), Odyssey quantitation. The series is classed as cell-based, human. Conditions: RKO cells, ssiRNA 1 nM, 48 hr; for Free TS (%) / ITC-Bound TS (%): normalized to free TS protein in mock-transfected cells (LF2000) set to 100%, mean ± S.D., 6 experiments. The procedure:
FIGS. 1A-B illustrate the effect of FdU incorporation in ssiRNA on TS protein expression. RKO cells were transfected with TS6 ssiRNAs (1 nM) containing various 3′-overhangs. After 6 hr, the medium was replaced. After an additional 48 hr, cells were harvested and processed for immunoblot and qPCR analysis as described in the Materials and Methods section. (A) Representative blot from 4 experiments. (B) All qPCR values represent the mean±S.D. from at least 3 separate experiments performed in triplicate. The normalized amount of TS mRNA from mock-transfected cells (LF2000) was set to 1.0 and all other values compared against that value. ITC, inhibitory ternary complex;
Cells were plated at a density of 1.5×10^5 cells/well. On the following day, ssiRNAs were complexed with Lipofectamine 2000 (LF2000, Invitrogen) in serum-free RPMI-1640 medium and added to the plated cells. After 48 hr, cells were rinsed with PBS and scraped in cell lysis buffer (10 mM Tris pH7.4, 150 mM NaCl, 1 mM EDTA, 1% IGEPAL, 0.5% sodium deoxycholate, and 0.1% SDS) containing freshly added Protease Inhibitor Cocktail (Sigma; St. Louis, Mo.), 1 mM phenylmethylsulfonyl fluoride, and phosphatase inhibitors (Sigma). Lysates were sonicated and then centrifuged at 14,000 rpm for 30 min at 4° C. to remove debris. Cell lysates were stored at −80° C. for future use. For mRNA analysis, total RNA was extracted using Trizol (Invitrogen) and stored at −80° C. for future use.
Protein concentrations of cell lysates were determined using the DC Protein Assay (Bio-Rad; Hercules, Calif.). Equal amounts of protein (30 μg) from each cell lysate were resolved on SDS-PAGE using the method of Laemmli (Reference 19) and transferred onto 0.45 μm nitrocellulose membranes (Bio-Rad). Membranes were blocked and incubated overnight with primary antibodies at 4° C. The following antibodies were used in the experiments: anti-TS (Clone 4H4B1; Invitrogen), anti-TS (#5449; Cell Signaling; San Francisco, Calif.), anti-p21 Waf1/Cip1 (#2947; Cell Signaling), anti-p53 (#sc-126; Santa Cruz Biotechnology; Santa Cruz, Calif.), anti-PARP (#9542; Cell Signaling), anti-Fas (#4233; Cell Signaling), anti-phospho-histone H2A.X (Ser139) (#2577; Cell Signaling), anti-histone H2A.X (#7631; Cell Signaling), anti-phospho-ATM (pS1981; EPITOMICS Inc.; Burlingame, Calif.), anti-ATM (#A1106; Sigma), and anti-α-tubulin (EMD Biosciences; San Diego, Calif.). After multiple TBST washes (1×TBS, 0.1% Tween-20), membranes were incubated with corresponding horseradish peroxidase-conjugated secondary antibodies (Bio-Rad) for 1 hr at room temperature. Proteins were detected by the enhanced chemiluminescence method (SuperSignal West Pico substrate; Pierce; Rockford, Ill.). Quantitation of signal intensities was performed by densitometry on a Xerox scanner using NIH IMAGEJ software.
Immunoblots were prepared as described above. After incubation with anti-TS polyclonal antibody, membranes were blocked with the Odyssey blocking buffer and incubated with IRDye 800CW goat anti-rabbit antibody (LI-COR Biosciences; Lincoln, Nebr., USA) according to the manufacturer instructions. The fluorescent signal was detected and quantified using the Odyssey infrared imaging system (LI-COR).
For orientation: A western blot detects proteins with antibodies after separation by electrophoresis.

Strand notation (5' to 3'): a small letter for the sugar, then the base; units joined by * are phosphorothioate-linked, units joined directly phosphodiester-linked; [ ] holds rarer units or linkages, { } end groups; capitals alone tell only the bases. [5FU] = 5-fluoro-2'-deoxyuridine (FdU); d = 2'-deoxy (DNA); r = 2'-OH (RNA)

For the compound `O=c1[nH]cc(F)c(=O)[nH]1` [5-FU, 5-fluorouracil, reference compound], in series [1], the “formation of the ITC after incubation with 5-FU” value is “did not result in formation of the ITC”.
As a reminder, the IC50 is the concentration needed to halve the response being measured. High values mean weaker potency, low ones greater potency. Turning to `O=c1[nH]c(=O)n([C@H]2C[C@H](O)[C@@H](CO)O2)cc1F` [FdU (TS inhibitor), 5-fluoro-2′-deoxyuridine], the IC50 in series [2] (Homo sapiens) worked out at 7.42 ± 1.33 nM; in series [3] (Homo sapiens), 6.93 ± 2.08 nM.
In the case of “Mis-dU/dA: unmodified mismatched control ssiRNA; SEQ ID NO: 19 and 20 (chain 1 GGAUACUGCCAAUCUCUAGGUUUUU; chain 2 CCUAGAGAUUGGCAGUAUCCAAAAA; chain 1: sugars from the 5' end r20 d5, backbone and T or U not given here; chain 2: sugars from the 5' end r20 d5, backbone not given here) [reference compound]”, the “effect on clonogenic growth (in words)” value in series [2] is on record as “no effect”. In addition, in series [3] (WST-1), the “effect on cell proliferation / cytotoxicity (in words)” value is “no effect”. The “Free TS (%)” value in series [4] turned out to be 90.1 ± 14.0%.
In the case of “TS6-1xF-dU/dA: ssiRNA with a single FdU residue at the 4th position in the sense strand; SEQ ID NO: 5 and 6 (chain 1 GGAUAUUGUCAGUCUUUAGGUUUUU; chain 2 CCUAAAGACUGACAAUAUCCAAAAA; FdU at position 4 of sense strand, chemistry not fully specified)”, in series [2], the “fold lower IC50 (greater potency) versus TS6-dU/dA, clonogenic assay” value is listed as 5 fold and the IC50 was 0.34 ± 0.08 nM. In series [3], the “enhancement of IC50 versus TS6-dU/dA, cell growth (WST-1) assay” value is around 30 fold and half-maximal inhibition (IC50) required 2.85 ± 0.83 nM. Also, in series [4], the “effect on TS protein expression (in words)” value is given as “significantly inhibited”, the “Free TS (%)” value came to 27.3 ± 8.3% and the “ITC-Bound TS (%)” value was determined as 4.4 ± 2.6%.
Consider “TS6-2xF-dU/dA: ssiRNA with FdU on positions 16 and 18 of the antisense strand; SEQ ID NO: 17 and 18 (chain 1 GGAUAUUGUCAGUCUUUAGGUUUUU; chain 2 CCUAAAGACUGACAAUAUCCAAAAA; chain 1: sugars from the 5' end r20 d5, backbone not given here; chain 2: sugars from the 5' end rrrrrrrrrrrrrrrdrdrrddddd, [5FU] at 16, 18, backbone not given here)”, for which, in series [4], the “Free TS (%)” value was found to be 54.1 ± 14.1% and the “ITC-Bound TS (%)” value came out at 15.4 ± 9.5%.
On the same counts, the results for “TS6-3xF-dU/dA: ssiRNA with FdU replacing U at positions 10, 16 and 18 in the antisense strand; SEQ ID NO: 15 and 16 (chain 1 GGAUAUUGUCAGUCUUUAGGUUUUU; chain 2 CCUAAAGACUGACAAUAUCCAAAAA; FdU at antisense positions 10, 16, 18, chemistry not fully specified)” are 73.6 ± 14.7% and 26.2 ± 10.7%.
For “TS6-FdU/FdU: TS-targeted ssiRNA, both 3′-ends modified with FdU; SEQ ID NO: 13 and 14 (chain 1 rGrGrArUrArUrUrGrUrCrArGrUrCrUrUrUrArGrGd[5FU]d[5FU]d[5FU]d[5FU]d[5FU]; chain 2 rCrCrUrArArArGrArCrUrGrArCrArArUrArUrCrCd[5FU]d[5FU]d[5FU]d[5FU]d[5FU])”, the IC50 in series [2] stood at 0.43 ± 0.16 nM; in series [3], 0.77 ± 0.12 nM. Further, the “reduced efficacy as compared to TS6-FdU/dA, clonogenic assay” value in series [2] (p=0.01) stood at 2 fold.
